Test results: patent publication US20260224589A1 (priority 2023, published 2026)
Read-outs that look alike come from different tables or passages of the source.

Test system: AsPC-1 cells
Test: phospho-ERK HTRF assay in AsPC-1 cells, 4 h treatment
Assay type: cell-based
Conditions: Homo sapiens, ASPC1
[1] = AsPC-1, 4H, Table 1a class column, read-out: pERK IC50 activity range (*)
[2] = AsPC-1, 4H, Table 1a, read-out: PERK IC50 (AsPC-1, 4H)
[3] = AsPC-1, 4h, Table 1b, read-out: PERK IC50 (AsPC-1, 4h)

In the case of `CN(C)C(=O)c1nn2c(c1Cl)CN(c1nc(OC[C@@]34CCCN3C[C@H](F)C4)nc3c1COC(c1cc(N)ccc1C(F)(F)F)C3)CCC2` (stereo in doubt) [230a, 5-((S)-7-(5-amino-2-(trifluoromethyl)phenyl)-2-(((2R,7aS)-2-fluorotetrahydro-1H-pyrrolizin-7a(5H)-yl)methoxy)-7,8-dihydro-5H-pyrano[4,3-d]pyrimidin-4-yl)-3-chloro-N,N-dimethyl-5,6,7,8-tetrahydro-4H-pyrazolo[1,5-a][1,4]diazepine-2-carboxamide], the IC50 [1] is reported as > 500 nM and the IC50 [2] is reported as > 10000 nM.
With `CN(C)C(=O)c1nn2c(c1Cl)CN(c1nc(OC[C@@]34CCCN3C[C@H](F)C4)nc3c1COC(c1cc(N)ccc1C(F)(F)F)C3)CCC2` (stereo in doubt) [230b, 5-((R)-7-(5-amino-2-(trifluoromethyl)phenyl)-2-(((2R,7aS)-2-fluorotetrahydro-1H-pyrrolizin-7a(5H)-yl)methoxy)-7,8-dihydro-5H-pyrano[4,3-d]pyrimidin-4-yl)-3-chloro-N,N-dimethyl-5,6,7,8-tetrahydro-4H-pyrazolo[1,5-a][1,4]diazepine-2-carboxamide] the IC50 [1] was 31 to 100 nM and the IC50 [2] was 13 nM.
`CS(=O)(=O)c1nn2c(c1Cl)CN(c1nc(OC[C@@]34CCCN3C[C@H](F)C4)nc3c1CO[C@H](c1c(C(F)(F)F)ccc(N)c1F)C3)CCC2` [211a, 3-((S)-4-(3-Chloro-2-(methylsulfonyl)-7,8-dihydro-4H-pyrazolo[1,5-a][1,4]diazepin-5(6H)-yl)-2-(((2R,7aS)-2-fluorotetrahydro-1H-pyrrolizin-7a(5H)-yl)methoxy)-7,8-dihydro-5H-pyrano[4,3-d]pyrimidin-7-yl)-2-fluoro-4-(trifluoromethyl)aniline] was tested, and the IC50 [1] was 101 to 500 nM and the IC50 [2] was 126 nM.
In the case of `CS(=O)(=O)c1nn2c(c1Cl)CN(c1nc(OC[C@@]34CCCN3C[C@H](F)C4)nc3c1CO[C@@H](c1c(C(F)(F)F)ccc(N)c1F)C3)CCC2` [211b], the IC50 [1] is reported as > 500 nM and the IC50 [2] is reported as > 10000 nM.
For `CN1CCOc2c(nn3c2CN(c2nc(OC[C@@]45CCCN4C[C@H](F)C5)nc4c2CO[C@H](c2c(C(F)(F)F)ccc(N)c2F)C4)CCC3)C1=O` [212a, 11-((S)-7-(3-amino-2-fluoro-6-(trifluoromethyl)phenyl)-2-(((2R,7aS)-2-fluorotetrahydro-1H-pyrrolizin-7a(5H)-yl)methoxy)-7,8-dihydro-5H-pyrano[4,3-d]pyrimidin-4-yl)-4-methyl-3,4,9,10,11,12-hexahydro-8H-[1,4]diazepino[1′,2′:1,5]pyrazolo[3,4-f][1,4]oxazepin-5(2H)-one], the IC50 [1] was > 500 nM and the IC50 [2] was 810 nM.
With `CN1CCOc2c(nn3c2CN(c2nc(OC[C@@]45CCCN4C[C@H](F)C5)nc4c2CO[C@@H](c2c(C(F)(F)F)ccc(N)c2F)C4)CCC3)C1=O` [212b] the IC50 [1] was > 500 nM and the IC50 [2] was > 10000 nM.
For `CN(C)C(=O)c1nn2c(c1Cl)CN(c1nc(OC[C@@]34CCCN3C[C@H](F)C4)nc3c1CO[C@H](c1c(F)c(N)cc(Cl)c1C(F)(F)F)C3)CCC2` [213a, 5-((S)-7-(3-amino-5-chloro-2-fluoro-6-(trifluoromethyl)phenyl)-2-(((2R,7aS)-2-fluorotetrahydro-1H-pyrrolizin-7a(5H)-yl)methoxy)-7,8-dihydro-5H-pyrano[4,3-d]pyrimidin-4-yl)-3-chloro-N,N-dimethyl-5,6,7,8-tetrahydro-4H-pyrazolo[1,5-a][1,4]diazepine-2-carboxamide], the IC50 [3] was < 10 nM.
`CN(C)C(=O)c1nn2c(c1Cl)CN(c1nc(OC[C@@]34CCCN3C[C@H](F)C4)nc3c1CO[C@@H](c1c(F)c(N)cc(Cl)c1C(F)(F)F)C3)CCC2` [213b] gave an IC50 [1] of 101 to 500 nM and an IC50 [2] of 320 nM.
With `CN(C)C(=O)c1nn2c(c1Cl)CN(c1nc(OC[C@@]34CCCN3C[C@H](F)C4)nc3c1CO[C@H](c1c(F)c(N)cc(F)c1C(F)(F)F)C3)CCC2` [214a, 5-((S)-7-(3-amino-2,5-difluoro-6-(trifluoromethyl)phenyl)-2-(((2R,7aS)-2-fluorotetrahydro-1H-pyrrolizin-7a(5H)-yl)methoxy)-7,8-dihydro-5H-pyrano[4,3-d]pyrimidin-4-yl)-3-chloro-N,N-dimethyl-5,6,7,8-tetrahydro-4H-pyrazolo[1,5-a][1,4]diazepine-2-carboxamide] the IC50 [3] was < 10 nM.
For `CN(C)C(=O)c1nn2c(c1Cl)CN(c1nc(OC[C@@]34CCCN3C[C@H](F)C4)nc3c1CO[C@@H](c1c(F)c(N)cc(F)c1C(F)(F)F)C3)CCC2` [214b], the IC50 [1] was > 500 nM and the IC50 [2] was 1550 nM.
With `Cc1cc(N)c(F)c([C@@H]2Cc3nc(OC[C@@]45CCCN4C[C@H](F)C5)nc(N4CCCn5nc(C(=O)N(C)C)c(Cl)c5C4)c3CO2)c1C(F)(F)F` [215a, 5-((S)-7-(3-amino-2-fluoro-5-methyl-6-(trifluoromethyl)phenyl)-2-(((2R,7aS)-2-fluorotetrahydro-1H-pyrrolizin-7a(5H)-yl)methoxy)-7,8-dihydro-5H-pyrano[4,3-d]pyrimidin-4-yl)-3-chloro-N,N-dimethyl-5,6,7,8-tetrahydro-4H-pyrazolo[1,5-a][1,4]diazepine-2-carboxamide] the IC50 [3] was < 10 nM.
Work on `Cc1cc(N)c(F)c([C@H]2Cc3nc(OC[C@@]45CCCN4C[C@H](F)C5)nc(N4CCCn5nc(C(=O)N(C)C)c(Cl)c5C4)c3CO2)c1C(F)(F)F` [215b] yielded an IC50 [1] of 101 to 500 nM and an IC50 [2] of 132 nM.
Compound `CN(C)C(=O)c1nn2c(c1Cl)CN(c1nc(OC[C@@]34CCCN3C[C@H](F)C4)nc3c1CO[C@H](c1c(C(F)(F)F)cc(F)c(N)c1F)C3)CCC2` [216a, 5-((S)-7-(3-amino-2,4-difluoro-6-(trifluoromethyl)phenyl)-2-(((2R,7aS)-2-fluorotetrahydro-1H-pyrrolizin-7a(5H)-yl)methoxy)-7,8-dihydro-5H-pyrano[4,3-d]pyrimidin-4-yl)-3-chloro-N,N-dimethyl-5,6,7,8-tetrahydro-4H-pyrazolo[1,5-a][1,4]diazepine-2-carboxamide] has an IC50 [1] of 31 to 100 nM and an IC50 [2] of 49 nM.
`CN(C)C(=O)c1nn2c(c1Cl)CN(c1nc(OC[C@@]34CCCN3C[C@H](F)C4)nc3c1CO[C@@H](c1c(C(F)(F)F)cc(F)c(N)c1F)C3)CCC2` [216b] was tested, and the IC50 [1] was > 500 nM and the IC50 [2] was > 10000 nM.
`CN(C)C(=O)c1nn2c(c1Cl)CN(c1nc(OC[C@@]34CCCN3CC(=C(F)F)C4)nc3c1CO[C@H](c1c(C(F)(F)F)ccc(N)c1F)C3)CCC2` [231a, 5-((S)-7-(3-amino-2-fluoro-6-(trifluoromethyl)phenyl)-2-(((S)-2-(difluoromethylene)tetrahydro-1H-pyrrolizin-7a(5H)-yl)methoxy)-7,8-dihydro-5H-pyrano[4,3-d]pyrimidin-4-yl)-3-chloro-N,N-dimethyl-5,6,7,8-tetrahydro-4H-pyrazolo[1,5-a][1,4]diazepine-2-carboxamide] showed an IC50 [1] of 31 to 100 nM and an IC50 [2] of 32 nM.
With `CN(C)C(=O)c1nn2c(c1Cl)CN(c1nc(OC[C@@]34CCCN3CC(=C(F)F)C4)nc3c1CO[C@@H](c1c(C(F)(F)F)ccc(N)c1F)C3)CCC2` [231b, 5-((R)-7-(3-amino-2-fluoro-6-(trifluoromethyl)phenyl)-2-(((S)-2-(difluoromethylene)tetrahydro-1H-pyrrolizin-7a(5H)-yl)methoxy)-7,8-dihydro-5H-pyrano[4,3-d]pyrimidin-4-yl)-3-chloro-N,N-dimethyl-5,6,7,8-tetrahydro-4H-pyrazolo[1,5-a][1,4]diazepine-2-carboxamide] the IC50 [1] was > 500 nM and the IC50 [2] was > 10000 nM.
